Laboratory results from patent US20240299542A1, “NATURAL KILLER CELLS ENGINEERED TO REDUCE OR ELIMINATE CBL-B AND USES THEREOF” (City of Hope, priority 2021, published 2024).

Key:
Type in all cases: cell-based, human
granzyme B [1] = assay: Granzyme B protein in supernatants by ELISA
Method: (§1) FIGS. 3A-3E depict the results of a study showing that downregulation of Cbl-b enhances the cytotoxicity of primary human NK cells. (FIGS. 3A and 3B) Primary human NK cells transduced with Cbl-b siRNA or Scr siRNA for 24 h were stimulated without (FIG. 3A) or with (FIG. 3B) a low concentration of IL-15 (2 ng/ml) for 16 h, then co-cultured with ^51Cr labeled Molm-13, MV4-11 or EOL-1 leukemia cell lines for 4 h, followed by quantification of specific tumor cell lysis. Each experiment was repeated with 6 different normal donors. (FIG. 3C) qRT-PCR was performed to quantify the granzyme B (GZMB) mRNA levels (n=8 donors) in siRNA- and Scr siRNA-transduced primary human NK cells incubated without or with IL-15 (10 ng/ml) for 16 h. (FIG. 3D) The concentration of the granzyme B protein in the supernatants of Cbl-b siRNA- and Scr siRNA-transduced primary human NK cells incubated without (688.1 pg/ml vs 525.4 pg/ml; P=0.0232) or with IL-15 (10 ng/ml) for 24 h (8789 pg/ml vs 3397 pg/ml; P=0.0232) was measured by ELISA (n=8 donors). (FIG. 3E) The level of granzyme B protein in Cbl-b siRNA- and Scr siRNA-transduced primary human NK cells incubated without or with IL-15 (10 ng/ml) for 24 h was measured by immunoblot analysis. The data are representative of three experiments. Scr-scrambled; *P<0.05, **P<0.01, ***P<0.001, ****P<0.0001 by One-way or Two-way ANOVA; ns, not significant. Data presented as mean±SEM.
ELISA. Primary NK cells were plated in an equivalent number of 100,000 cells/well in a 96-well plate in RPMI and supplemented with 10% FBS. Cells were treated with recombinant human IL-15 (10 ng/ml) for 24 h, and cell-free culture supernatant was collected and frozen at −80° C. for later use. IFN-γ concentration was measured by ELISA using anti-IFN-γ antibody from Thermo Fisher Scientific. Granzyme B concentration was measured by ELISA kit purchased from R&D.
(§2) Both groups were next incubated without or with IL-15 and co-cultured with ^51Cr labeled MV4-11, Molm-13, or EOL-1 leukemia cell lines, followed by assessment of specific lysis measured after 4 h of co-culture.

IFN-γ = IFN-γ mRNA by qRT-PCR in IL-15-activated siRNA-transduced NK cells; settings: IL-15 (10 ng/ml) 6 h, vs Scr siRNA
Method: FIGS. 4A-4D depict the results of a study showing that downregulation of Cbl-b increases IFN-γ secretion in IL-15-activated primary human NK cells. (FIG. 4A) RNAseq was conducted using primary human NK cells transduced with either Cbl-b siRNA or Scr siRNA without or with incubation in IL-15 (10 ng/ml) for 16 h (4 donors for each group). […] (FIG. 4B) qRT-PCR was performed to quantify the mRNA levels of IFN-γ (n=6 donors) after IL-15 (10 ng/ml) 6 h stimulation. (FIG. 4C) The percentage of intracellular IFN-γ+ cells in un-transduced NK cells or those transduced with Cbl-b siRNA or Scr siRNA, each activated with IL-15 (10 ng/ml) for 24 h (11.5% vs 4.338%; P=0.0008; n=5 donors). (FIG. 4D) Supernatants were collected after IL-15 (10 ng/ml) for 24 h and IFN-γ concentrations measured by ELISA (18115 pg/ml vs 882.5 pg/ml; P=0.0099; n=7 donors). Scr-scrambled; *P<0.05, **P<0.01, ***P<0.001 by Student's two-tailed paired t-test or One-way ANOVA; ns, not significant. Data presented as mean±SEM.
Reverse transcription-polymerase chain reaction. Total RNA was isolated from primary NK cells with the RNeasy Mini Kit (Qiagen). Complementary DNA (cDNA) was generated by Moloney murine leukemia virus (M-MLV) reverse transcriptase (Invitrogen) and amplified by qPCR with SYBR Green PCR Master Mix (Applied Biosystems) and gene-specific primers. […]

perform = assay: Perforin mRNA by qRT-PCR in siRNA-transduced NK cells; settings: without or with IL-15 (10 ng/ml) 16 h, vs Scr siRNA
Method: FIG. 8A Primary human NK cells were transduced with Cbl-b siRNA or a scrambled siRNA (Scr siRNA) for 48 h, directly followed by immunoblot analysis to determine the efficiency of siRNA (n=3 donors). […] FIG. 8B qRT-PCR was performed to quantify the level of perform mRNA (n=7 donors) in Cbl-b siRNA- and Scr siRNA-transduced primary human cells incubated without or with IL-15 (10 ng/ml) for 16 h. FIG. 8C The perform protein level in Cbl-b siRNA- and Scr siRNA-transduced primary human NK cells incubated 24 without or with IL-15 (10 ng/ml) for 24 h was measured by immunoblot analysis. The data are representative of four experiments and are summarized in the right panel. Scr, scrambled; *P<0.05, **P<0.01; ns, not significant. Data are presented as mean±SEM.
Reverse transcription-polymerase chain reaction. Total RNA was isolated from primary NK cells with the RNeasy Mini Kit (Qiagen). Complementary DNA (cDNA) was generated by Moloney murine leukemia virus (M-MLV) reverse transcriptase (Invitrogen) and amplified by qPCR with SYBR Green PCR Master Mix (Applied Biosystems) and gene-specific primers. Relative amplification values were normalized to the amplification of GAPDH or 18S rRNA.
as §2

granzyme B [2] = assay: Granzyme B protein by immunoblot in siRNA-transduced NK cells; settings: without or with IL-15 (10 ng/ml) 24 h
Method: as §1, with “The data are representative of three experiments. Scr-scrambled; *P<0.05, **P<0.01, ***P<0.001, ****P<0.0001 by One-way or Two-way ANOVA; ns, not significant. Data presented as mean±SEM.” left out
Immunoblotting. […] Densitometric analysis was performed to quantify intensity of gel bands with Image J (National Institutes of Health). […]

Substance: Cbl-b siRNA: Cbl-b-specific Accell siRNA (Dharmacon), SEQ ID NO:1, CCUUCAUGUUCAGAUGGUU (Accell modified siRNA, pattern not given here)
- concentration of granzyme B protein in supernatants (granzyme B [1]; with IL-15 (10 ng/ml) 24 h, n=8 donors): 8789 pg/mL
- concentration of granzyme B protein in supernatants (granzyme B [1]; without IL-15, n=8 donors): 688.1 pg/mL
- IFN-γ mRNA (IFN-γ): increased dramatically
- perform mRNA (perform): did not reach a statistical significance
- total GZMB protein (granzyme B [2]): increase of total GZMB protein
